# Data: patent US8110571B2, “Benzimidazole and benzothiazole derivatives, method for preparing same, use thereof as drugs, pharmaceutical compositions and novel use especially as c-MET inhibitors” (Aventis Pharma S.A., priority 2005, dated 2012)
# Where a name gives a salt, the structure may show the parent alone.
row,SMILES,melting point
1,"CN1CCN(c2ccc(CNC(=O)Nc3nc4ccc(OS(=O)(=O)c5c(Cl)cccc5Cl)cc4s3)cc2)CC1 (as salt: benzene-sulfonate) [Example 52, 2-({[4-(4-methylpiperazin-1-yl)benzyl]carbamoyl}amino)-1,3-benzothiazol-6-yl 2,6-dichlorobenzene-sulfonate]",88 °C
2,"COCCNC(=O)Nc1nc2cc(OS(=O)(=O)c3c(Cl)cccc3Cl)ccc2[nH]1 (as salt: benzenesulfonate) [Example 1, 2-{[(2-methoxyethyl)carbamoyl]amino}-1H-benzimidazol-5-yl 2,6-dichlorobenzenesulfonate]",171 °C
3,"COCCNC(=O)Nc1nc2cc(OS(=O)(=O)c3c(C)cccc3Cl)ccc2[nH]1 (as salt: benzenesulfonate) [Example 2, 2-{[(2-Methoxyethyl)carbamoyl]amino}-1H-benzimidazol-5-yl 2-chloro-6-methylbenzenesulfonate]",138 °C
4,"COCCNC(=O)Nc1nc2cc(OS(=O)(=O)c3c(C)cc(C)cc3C)ccc2[nH]1 (as salt: benzenesulfonate) [Example 3, 2-{[(2-Methoxyethyl)carbamoyl]amino}-1H-benzimidazol-5-yl 2,4,6-trimethylbenzenesulfonate]",140 °C
5,"O=C(NCCN1CCOCC1)Nc1nc2cc(OS(=O)(=O)c3c(Cl)cccc3Cl)ccc2[nH]1 (as salt: benzenesulfonate) [Example 5, 2-{[(2-Morpholin-4-ylethyl)carbamoyl]amino}-1H-benzimidazol-5-yl 2,6-dichlorobenzenesulfonate]",149 °C
6,"O=C(NCCN1CCOCC1)Nc1nc2cc(OS(=O)(=O)c3c(F)cccc3F)ccc2[nH]1 (as salt: benzenesulfonate) [Example 9, 2-{[(2-Morpholin-4-ylethyl)carbamoyl]amino}-1H-benzimidazol-5-yl 2,6-difluorobenzenesulfonate]",190 to 192 °C
7,"O=C(Nc1nc2cc(OS(=O)(=O)c3c(Cl)cccc3Cl)ccc2[nH]1)NC1CC1 (as salt: benzenesulfonate) [Example 12, 2-[(Cyclopropylcarbamoyl)amino]-1H-benzimidazol-5-yl 2,6-dichlorobenzenesulfonate]",160 to 165 °C
8,"O=C(NCc1ccccn1)Nc1nc2cc(OS(=O)(=O)c3c(Cl)cccc3Cl)ccc2[nH]1 (as salt: benzenesulfonate) [Example 15, 2-{[(Pyridin-2-ylmethyl)carbamoyl]amino}-1H-benzimidazol-5-yl 2,6-dichlorobenzenesulfonate]",204 °C
9,"O=C(NCc1cccnc1)Nc1nc2cc(OS(=O)(=O)c3c(Cl)cccc3Cl)ccc2[nH]1 (as salt: benzenesulfonate) [Example 16, 2-{[(Pyridin-3-ylmethyl)carbamoyl]amino}-1H-benzimidazol-5-yl 2,6-dichlorobenzenesulfonate]",210 °C
10,"O=C(NCc1ccncc1)Nc1nc2cc(OS(=O)(=O)c3c(Cl)cccc3Cl)ccc2[nH]1 (as salt: benzenesulfonate) [Example 17, 2-{[(Pyridin-4-ylmethyl)carbamoyl]amino}-1H-benzimidazol-5-yl 2,6-dichlorobenzenesulfonate]",165 to 170 °C
11,"O=C(NCc1ccccc1)Nc1nc2cc(OS(=O)(=O)c3c(Cl)cccc3Cl)ccc2[nH]1 (as salt: benzenesulfonate) [Example 18, 2-[(Benzylcarbamoyl)amino]-1H-benzimidazol-5-yl 2,6-dichlorobenzenesulfonate]",195 °C
12,"O=C(NCCc1cccnc1)Nc1nc2cc(OS(=O)(=O)c3c(Cl)cccc3Cl)ccc2[nH]1 (as salt: benzenesulfonate) [Example 19, 2-{[(2-Pyridin-3-ylethyl)carbamoyl]amino}-1H-benzimidazol-5-yl 2,6-dichlorobenzenesulfonate]",131 °C
13,"CN1CCN(CCNC(=O)Nc2nc3cc(OS(=O)(=O)c4c(Cl)cccc4Cl)ccc3[nH]2)CC1 (as salt: benzenesulfonate) [Example 20, 2-({[2-(4-Methylpiperazin-1-yl)ethyl]carbamoyl}amino)-1H-benzimidazol-5-yl 2,6-dichlorobenzenesulfonate]",180 °C
14,"O=C(NCCN1CCNCC1)Nc1nc2cc(OS(=O)(=O)c3c(Cl)cccc3Cl)ccc2[nH]1 (as salt: benzenesulfonate) [Example 21, 2-{[(2-piperazin-1-ylethyl)carbamoyl]amino}-1H-benzimidazol-5-yl 2,6-dichlorobenzenesulfonate]",145 to 150 °C
15,"O=C(NCCC1CCNCC1)Nc1nc2cc(OS(=O)(=O)c3c(Cl)cccc3Cl)ccc2[nH]1 (as salt: benzenesulfonate) [Example 22, 2-{[(2-Piperidin-4-ylethyl)carbamoyl]amino}-1H-benzimidazol-5-yl 2,6-dichlorobenzenesulfonate]",165 °C
16,"CC(C)(C)OC(=O)Nc1nc2cc(OS(=O)(=O)c3c(Cl)cccc3Cl)ccc2[nH]1 (as salt: benzenesulfonate) [Example 23, 2-[(tert-Butoxycarbonyl)amino]-1H-benzimidazol-5-yl 2,6-dichlorobenzenesulfonate]",205 °C
17,"O=C(Nc1nc2cc(OS(=O)(=O)c3c(Cl)cccc3Cl)ccc2[nH]1)C1CC1 (as salt: benzenesulfonate) [Example 24, 2-[(Cyclopropylcarbonyl)amino]-1H-benzimidazol-5-yl 2,6-dichlorobenzenesulfonate]",242 °C
18,"O=C(CCc1cccnc1)Nc1nc2cc(OS(=O)(=O)c3c(Cl)cccc3Cl)ccc2[nH]1 (as salt: benzenesulfonate) [Example 25, 2-[(3-Pyridin-3-ylpropanoyl)amino]-1H-benzimidazol-5-yl 2,6-dichlorobenzenesulfonate]",188 °C
19,"O=C(CCC1CCN(C(=O)c2ccccc2)CC1)Nc1nc2cc(OS(=O)(=O)c3c(Cl)cccc3Cl)ccc2[nH]1 (as salt: benzenesulfonate) [Example 26, 2-{[3-(1-Benzoylpiperidin-4-yl)propanoyl]amino}-1H-benzimidazol-5-yl 2,6-dichlorobenzenesulfonate]",135 °C
20,"O=C(CCC1CCNCC1)Nc1nc2cc(OS(=O)(=O)c3c(Cl)cccc3Cl)ccc2[nH]1 (as salt: benzenesulfonate) [Example 27, 2-[(3-Piperidin-4-ylpropanoyl)amino]-1H-benzimidazol-5-yl 2,6-dichlorobenzenesulfonate]",135 °C
21,"O=C(Nc1nc2cc(OS(=O)(=O)c3c(F)cccc3F)ccc2[nH]1)C1CC1 (as salt: benzenesulfonate) [Example 29, 2-[(Cyclopropylcarbonyl)amino]-1H-benzimidazol-5-yl 2,6-difluorobenzenesulfonate]",174 °C
22,"O=C(NCc1ccccn1)Nc1nc2ccc(OS(=O)(=O)c3c(Cl)cccc3Cl)cc2s1 (as salt: benzenesulfonate) [Example 30, 2-{[(Pyridin-2-ylmethyl)carbamoyl]amino}-1,3-benzothiazol-6-yl 2,6-dichlorobenzenesulfonate]",118 °C
23,"O=C(Nc1nc2ccc(OS(=O)(=O)c3c(Cl)cccc3Cl)cc2s1)NC1CC1 (as salt: benzenesulfonate) [Example 31, 2-[(Cyclopropylcarbamoyl)amino]-1,3-benzothiazol-6-yl 2,6-dichlorobenzenesulfonate]",128 °C
